Measurements taken from ChEMBL document CHEMBL4699634, “Series of Novel and Highly Potent Cyclic Peptide PCSK9 Inhibitors Derived from an mRNA Display Screen and Optimized via Structure-Based Design” (J Med Chem, 2020).
Numbered stars: 1 amine (or outer) side, 2 acyl side, 3 side chain; on linkers, the order of the positions; unused ones are H or OH. Bridge positions count the residues as written; N and C are the ends. Square brackets hold non-standard residues; d marks the D form. Peptide text beside a SMILES is read from it. Trp(5-F) = N[C@@H](Cc1c[nH]c2ccc(F)cc12)C(=O)O; mXylylene(5-F) = Fc1cc(C[*:1])cc(C[*:2])c1; mXylylene = c1cc(C[*:1])cc(C[*:2])c1; αMeP = C[C@@]1(C(=O)O)CCCN1; Mpa = O=C(O)CCS

Experiments:
[1] = target: Proprotein convertase subtilisin/kexin type 9 (Homo sapiens, UniProt Q8NBP7); assay: Inhibition of AlexaFluor647-tagged cyclic peptide binding to avi-tagged-biotinylated human PCSK9 measured after 2 hrs by Lance Streptavidin Europium based FRET assay
PCSK9/LDLR = PCSK9/LDLR (Homo sapiens, UniProt Q8NBP7); assay: Inhibition of avi-tagged-biotinylated human PCSK9 interaction with His-tagged human LDLR EGFa domain by LANCE Ulight Streptavidin based TR-FRET assay; format: protein assay
Chymotrypsinogen A = Chymotrypsinogen A (Bos taurus, UniProt P00766); assay: Enzymatic stability assessed as bovine pancreatic alpha-chymotrypsin-mediated compound hydrolysis by measuring parent compound remaining at 100 uM incubated for 1 hr by LC-MS/MS analysis; format: ADME; conditions: cattle, read-out: Stabilty
[2] = target: Chymotrypsin-like elastase family member 1 (Sus scrofa, UniProt P00772); assay: Enzymatic stability assessed as porcine type 4 pancreatic elastase-mediated compound hydrolysis by measuring parent compound remaining at 100 uM incubated for 1 hr by LC-MS/MS analysis; format: ADME; conditions: pig, read-out: Stabilty
[3] = Enzymatic stability assessed as bovine pancreatic trypsin-mediated compound hydrolysis by measuring parent compound remaining at 100 uM incubated for 1 hr by LC-MS/MS analysis; format: ADME, Bos taurus; conditions: cattle, read-out: Stabilty
[4] = Enzymatic stability assessed as porcine pepsin-mediated compound hydrolysis by measuring parent compound remaining at 100 uM incubated for 1 hr by LC-MS/MS analysis; format: ADME, Sus scrofa; conditions: pig, read-out: Stabilty
[5] = Half life in C57BL/6 mouse whole blood at 100 uM by LC-MS/MS analysis; format: ADME, tissue-based

PCSK9/LDLR, sequence (Q8NBP7 31-152 limits assumed): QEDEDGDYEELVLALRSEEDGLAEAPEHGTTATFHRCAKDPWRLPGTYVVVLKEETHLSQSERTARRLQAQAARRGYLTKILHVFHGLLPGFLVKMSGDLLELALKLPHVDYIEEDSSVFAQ
PCSK9/LDLR, sequence (Q8NBP7 153-692 limits assumed): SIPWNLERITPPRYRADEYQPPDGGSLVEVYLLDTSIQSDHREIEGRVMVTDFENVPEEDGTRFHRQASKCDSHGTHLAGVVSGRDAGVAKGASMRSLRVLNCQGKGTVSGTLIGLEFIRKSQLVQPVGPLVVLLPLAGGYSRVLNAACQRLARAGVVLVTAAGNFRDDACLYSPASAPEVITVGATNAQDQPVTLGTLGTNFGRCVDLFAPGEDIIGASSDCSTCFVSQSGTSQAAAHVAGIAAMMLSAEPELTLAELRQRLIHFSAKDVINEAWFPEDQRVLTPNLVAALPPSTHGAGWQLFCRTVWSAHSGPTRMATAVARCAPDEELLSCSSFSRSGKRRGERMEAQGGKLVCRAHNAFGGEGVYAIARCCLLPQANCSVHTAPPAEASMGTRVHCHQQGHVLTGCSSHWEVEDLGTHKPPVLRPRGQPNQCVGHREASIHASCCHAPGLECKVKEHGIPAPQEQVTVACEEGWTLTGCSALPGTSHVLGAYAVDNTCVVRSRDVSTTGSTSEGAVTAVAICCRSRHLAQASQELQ
PCSK9/LDLR, sequence (P01130 22-860 partner limits assumed): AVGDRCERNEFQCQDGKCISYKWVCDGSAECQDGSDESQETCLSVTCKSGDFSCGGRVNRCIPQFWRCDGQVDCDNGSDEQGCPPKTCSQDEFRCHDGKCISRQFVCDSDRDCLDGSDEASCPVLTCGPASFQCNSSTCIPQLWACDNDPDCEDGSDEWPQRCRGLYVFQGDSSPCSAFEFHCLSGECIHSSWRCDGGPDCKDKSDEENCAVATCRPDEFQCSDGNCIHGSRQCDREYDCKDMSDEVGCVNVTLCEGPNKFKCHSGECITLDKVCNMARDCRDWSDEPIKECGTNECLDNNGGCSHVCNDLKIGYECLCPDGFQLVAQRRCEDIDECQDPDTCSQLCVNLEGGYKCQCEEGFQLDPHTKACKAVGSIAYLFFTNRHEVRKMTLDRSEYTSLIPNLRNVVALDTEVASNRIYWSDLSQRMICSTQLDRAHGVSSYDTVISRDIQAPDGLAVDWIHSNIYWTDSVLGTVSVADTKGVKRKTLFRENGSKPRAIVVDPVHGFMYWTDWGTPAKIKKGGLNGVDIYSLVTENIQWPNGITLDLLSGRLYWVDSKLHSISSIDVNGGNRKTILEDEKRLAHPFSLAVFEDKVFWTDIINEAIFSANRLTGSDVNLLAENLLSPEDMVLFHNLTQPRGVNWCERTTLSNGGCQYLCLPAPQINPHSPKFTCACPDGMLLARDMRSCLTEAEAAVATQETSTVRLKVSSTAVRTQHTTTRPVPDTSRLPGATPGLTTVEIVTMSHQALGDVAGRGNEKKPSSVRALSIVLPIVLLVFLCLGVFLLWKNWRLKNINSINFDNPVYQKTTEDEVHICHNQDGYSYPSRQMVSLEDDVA
Proprotein convertase subtilisin/kexin type 9, sequence (Q8NBP7 31-152 limits assumed): as the sequence (Q8NBP7 31-152 limits assumed) above
Proprotein convertase subtilisin/kexin type 9, sequence (Q8NBP7 153-692 limits assumed): as the sequence (Q8NBP7 153-692 limits assumed) above
Chymotrypsin-like elastase family member 1, sequence (P00772 whole entry): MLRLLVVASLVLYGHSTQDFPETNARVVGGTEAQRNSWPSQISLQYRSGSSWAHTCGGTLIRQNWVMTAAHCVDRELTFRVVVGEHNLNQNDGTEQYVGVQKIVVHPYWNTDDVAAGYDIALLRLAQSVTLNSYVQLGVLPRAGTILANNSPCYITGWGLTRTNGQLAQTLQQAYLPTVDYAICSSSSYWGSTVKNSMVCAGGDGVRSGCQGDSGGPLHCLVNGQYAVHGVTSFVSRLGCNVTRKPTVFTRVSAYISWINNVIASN

Row | SMILES | Ki [1] [nM] | Ki (PCSK9/LDLR) [nM] | also measured
1 | COc1ccc(C[C@@H]2NC(=O)[C@H]([C@@H](C)O)NC(=O)[C@@H]3CCCC(=O)NCc4cccc(c4)C[C@H](NC(=O)[C@@H](C)NC(=O)[C@H](C)NC(=O)CCSCc4cccc(c4)CSCCNC(=O)[C@]4(C)CCCN4C2=O)C(=O)N[C@@H](Cc2c[nH]c4ccc(F)cc24)C(=O)N3)cc1 | 44.2 |  | 
2 | COc1ccc(C[C@@H]2NC(=O)[C@H]([C@@H](C)O)NC(=O)[C@@H]3CCCCC(=O)NCc4cccc(c4)C[C@H](NC(=O)[C@@H](C)NC(=O)[C@H](C)NC(=O)CCSCc4cccc(c4)CSCCNC(=O)[C@]4(C)CCCN4C2=O)C(=O)N[C@@H](Cc2c[nH]c4ccc(F)cc24)C(=O)N3)cc1 | 4 |  | 
3 | COc1ccc(C[C@@H]2NC(=O)[C@H]([C@@H](C)O)NC(=O)[C@@H]3CCCCC(=O)NCc4ccc(cc4)C[C@H](NC(=O)[C@@H](C)NC(=O)[C@H](C)NC(=O)CCSCc4cccc(c4)CSCCNC(=O)[C@]4(C)CCCN4C2=O)C(=O)N[C@@H](Cc2c[nH]c4ccc(F)cc24)C(=O)N3)cc1 | 175 |  | 
4 | COc1ccc(C[C@@H]2NC(=O)[C@H]([C@@H](C)O)NC(=O)[C@@H]3CC(=O)NCc4cccc(c4)C[C@H](NC(=O)[C@@H](C)NC(=O)[C@H](C)NC(=O)CCSCc4cccc(c4)CSCCNC(=O)[C@]4(C)CCCN4C2=O)C(=O)N[C@@H](Cc2c[nH]c4ccc(F)cc24)C(=O)N3)cc1 | 285 |  | 
5 | CCC[C@H]1NC(=O)[C@H](CCCCN)NC(=O)CCSCc2cccc(c2)CSCCNC(=O)[C@]2(C)CCCN2C(=O)[C@H](Cc2ccc(O)cc2)NC(=O)[C@H](Cc2cnc[nH]2)NC(=O)[C@H](CC(=O)O)NC(=O)[C@H](Cc2c[nH]c3ccc(F)cc23)NC(=O)[C@H](Cc2c[nH]c3ccc(F)cc23)NC1=O | 2.7 | 43.5 | 
6 | COc1ccc(C[C@@H]2NC(=O)[C@H]([C@@H](C)OC)NC(=O)[C@@H]3CCC(=O)NCc4cccc(c4)C[C@H](NC(=O)[C@@H](C)NC(=O)[C@H](C)NC(=O)CCSCc4cccc(c4)CSCCNC(=O)[C@]4(C)CCCN4C2=O)C(=O)NC(Cc2ccnc4ccc(F)cc24)C(=O)N3C)cc1 (stereo partly specified) | 2.8 |  | 
7 | C[C@@H]1NC(=O)CCSCc2cccc(c2)CSC[C@@H](C(N)=O)NC(=O)[C@@H]2CCCN2C(=O)[C@H](Cc2ccc(O)cc2)NC(=O)[C@H](Cc2cnc[nH]2)NC(=O)[C@H](CC(=O)O)NC(=O)[C@H](Cc2c[nH]c3ccc(F)cc23)NC(=O)[C@H](Cc2c[nH]c3ccc(F)cc23)NC(=O)CNC1=O ([Mpa]AG[Trp(5-F)][Trp(5-F)]DHYPC-NH2; linker 1-10 via mXylylene) |  | 392 | remaining at 1 h, 100 µM (Chymotrypsinogen A): 15.5%; remaining at 1 h, 100 µM [2]: 54.9%; remaining at 1 h, 100 µM [3]: 1%; remaining at 1 h, 100 µM [4]: 92.5%; half-life at 100 µM [5]: 1.49 h
8 | C[C@@H](O)[C@@H]1NC(=O)[C@@H]2CCCN2C(=O)[C@H](Cc2c[nH]c3ccc(F)cc23)NC(=O)[C@H](Cc2c[nH]c3ccc(F)cc23)NC(=O)CNC(=O)[C@H](CCCCN)NC(=O)CCSCc2cccc(c2)CSC[C@@H](C(N)=O)NC(=O)[C@]2(C)CCCN2C(=O)[C@H](Cc2ccc(O)cc2)NC1=O ([Mpa]KG[Trp(5-F)][Trp(5-F)]PTY[αMeP]C-NH2; linker 1-10 via mXylylene) | 11.7 | 23.9 | remaining at 1 h, 100 µM (Chymotrypsinogen A): 91%; remaining at 1 h, 100 µM [2]: 51%; remaining at 1 h, 100 µM [3]: 1.9%; remaining at 1 h, 100 µM [4]: 95%; half-life at 100 µM [5]: > 6 h
9 | C[C@H]1NC(=O)[C@H](CCCCN)NC(=O)CCSCc2cc(F)cc(c2)CSC[C@@H](C(N)=O)NC(=O)[C@]2(C)CCCN2C(=O)[C@H](Cc2ccc(O)cc2)NC(=O)[C@H]([C@@H](C)O)NC(=O)[C@@H]2CCCN2C(=O)[C@H](Cc2c[nH]c3ccc(F)cc23)NC(=O)[C@H](Cc2c[nH]c3ccc(F)cc23)NC1=O ([Mpa]K[dA][Trp(5-F)][Trp(5-F)]PTY[αMeP]C-NH2; linker 1-10 via mXylylene(5-F)) | 11 |  | 
